Assays:
Cannabinoid receptor 2 = Cannabinoid receptor 2 (Mus musculus, UniProt P47936); assay: Compound was evaluated for its ability to displace specifically bound [3H]CP-55940 from a Cannabinoid receptor 2 enriched mouse spleen preparation.; type: tissue-based
Cannabinoid receptor 1 = Cannabinoid receptor 1 (Rattus norvegicus, UniProt P20272); assay: Compound was evaluated for its ability to displace specifically bound [3H]CP-55940 from a Cannabinoid receptor 1 enriched rat brain microsome preparation.
Chain of Cannabinoid receptor 1 (P20272 whole entry): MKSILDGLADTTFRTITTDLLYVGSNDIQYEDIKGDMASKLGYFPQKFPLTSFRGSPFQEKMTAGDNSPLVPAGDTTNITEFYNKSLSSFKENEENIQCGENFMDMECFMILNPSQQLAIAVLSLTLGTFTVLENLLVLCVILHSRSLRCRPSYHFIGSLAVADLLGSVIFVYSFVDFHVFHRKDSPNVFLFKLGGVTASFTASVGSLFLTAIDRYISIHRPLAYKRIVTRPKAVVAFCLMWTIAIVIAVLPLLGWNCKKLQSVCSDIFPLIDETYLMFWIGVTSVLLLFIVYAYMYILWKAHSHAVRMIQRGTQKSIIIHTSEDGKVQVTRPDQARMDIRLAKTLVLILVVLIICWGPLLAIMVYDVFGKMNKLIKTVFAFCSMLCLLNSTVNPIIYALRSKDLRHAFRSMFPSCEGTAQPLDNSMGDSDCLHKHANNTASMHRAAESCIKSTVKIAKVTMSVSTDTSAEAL

Chain of Cannabinoid receptor 2 (P47936 whole entry): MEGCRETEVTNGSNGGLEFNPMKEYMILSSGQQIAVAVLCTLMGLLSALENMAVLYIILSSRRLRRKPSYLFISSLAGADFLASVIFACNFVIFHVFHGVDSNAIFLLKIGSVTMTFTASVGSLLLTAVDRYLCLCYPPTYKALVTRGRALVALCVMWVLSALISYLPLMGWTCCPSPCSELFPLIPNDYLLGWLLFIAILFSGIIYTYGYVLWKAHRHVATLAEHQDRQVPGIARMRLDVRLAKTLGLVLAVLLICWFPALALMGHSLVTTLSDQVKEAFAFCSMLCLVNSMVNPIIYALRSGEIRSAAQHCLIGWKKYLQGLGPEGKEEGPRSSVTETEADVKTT

Row | Structure (SMILES) | Ki (Cannabinoid receptor 2) [nM] | Ki (Cannabinoid receptor 1) [nM]
1 | CCCCCCCc1cc(O)c2c(c1)OC(C)(C)[C@@H]1CC[C@@H](CO)C[C@@H]21 | 14.3 | 
2 | CCCCC/C=C/c1cc(O)c2c(c1)OC(C)(C)[C@@H]1CC[C@@H](CO)C[C@@H]21 | 5.3 | 1.2
3 | CCCCCC#Cc1cc(O)c2c(c1)OC(C)(C)[C@@H]1CC[C@@H](CO)C[C@@H]21 | 61.6 | 5.8
4 | CCCCC/C=C\c1cc(O)c2c(c1)OC(C)(C)[C@@H]1CC[C@@H](CO)C[C@@H]21 | 9.5 | 0.8

— ChEMBL document CHEMBL1129689, “Unsaturated side chain beta-11-hydroxyhexahydrocannabinol analogs” (J Med Chem, 1996)
